Measured values: patent US11926628B2 (Gilead Sciences, Inc., priority 2021, dated 2024)

Legend:
[1] = target: human DGKα (Homo sapiens (Human), UniProt P23743); test: DGKα Biochemical Activity Assay (ADP-Glo); details: recombinant DGKα 1 nM, 100 μM ATP, 18:1 DAG/POPS/octylglucoside micelles, 1 hour at 25° C.; geometric mean; read-out: HTBS DGKa 1X ATP KM IC50
Description: Alternatively, the enzymatic activity of human DGKα was monitored in a biochemical assay in the presence or absence of compounds and using micelles containing 18:1 Diacylglycerol (DAG), 16:0-18:1 PS (POPS) and Octylglucoside as substrate. DGKα activity led to conversion of DAG and ATP to Phosphatidic Acid (PA) and ADP. Levels of ADP were monitored by bioluminescence using the ADP-Glo Kinase Assay (Promega) and were indicative of DGKα activity.
Ten nanoliters of test compound dissolved in DMSO at various concentrations were dispensed into a 384-well low volume nonbinding service white plates (Corning #3824) using a Labcyte Echo instrument. Recombinant DGKα (Carna Biosciences) in assay buffer (5 μL in 50 mM MOPS [3-(N-morpholino) propanesulfonic acid], pH 7.2; 0.0025% Triton X-100; 1 mM dithiothreitol; 5 mM MgCl2, 200 μM ATP) was added to the compound-containing plate and was incubated for 15 minutes at 25° C. A substrate solution (5 μL in 1.7 mM 1,2-dioleoyl-sn-glycerol [18:1 DAG], 13.5 mM 1-palmitoyl-2-oleoyl-sn-glycero-3-phospho-L-serine [16:0-18:1 PS](POPS), 2 μM CaCl2, 100 mM Octylglucoside (OG), 1 mM DTT) (obtained from Carna Biosciences) diluted in DGK ALPHA assay buffer was then added to start the reaction. Final concentrations were 1 nM DGKα, 100 μM ATP, 1 μM calcium chloride, 0.85 mM 1,2-dioleoyl-sn-glycerol (18:1 DAG), 6.75 mM 1-palmitoyl-2-oleoyl-sn-glycero-3-phospho-L-serine (16:0-18:1 PS) (POPS), 1 μM CaCl2), 50 mM Octylglucoside (OG) and 5 mM MgCl2. The reaction mixture was incubated at 25° C. for 1 hour. ADP-Glo Reagent (10 μL, 10 mM Mg added) provided by the kit was added to each well and incubated at 25° C. for 40 minutes. Then, 20 μL of Kinase Detection Reagent was added and incubated at 25° C. for 40 minutes. Luciferase activity of each well was measured via luminescence on an Envision plate reader (PerkinElmer).
Data were normalized based on maximum inhibition (50 μM of kinase inhibitor CU3) and no inhibition (DMSO) controls. Least squares curve fittings were performed using a four-parameter variable slope nonlinear regression model. IC50 was defined as the concentration of compound required to inhibit 50% of maximum activity. IC50 values from multiple experiments were averaged by geometric mean and the standard deviation was calculated.

[2] = tested on: Jurkat NFκB-luciferase cells; test: Jurkat NFκB-Luciferase Assay; assay type: cell-based; details: Homo sapiens; Jurkat NFκB-luciferase cells activated with anti-CD3 antibody (OKT3), 2.5 hrs at 37° C.; geometric mean; read-out: DGK NFKb Luciferase EC50
Description: The activity of compounds was tested in a cell based NFκB reporter assay. Jurkat cells that are stably expressing a luciferase reporter construct under the transcriptional control of a NFκB reporter element were activated with an anti-CD3 antibody and luciferase levels were measured with a bioluminescence readout. An increase in the levels of bioluminescence was indicative of enhanced T-cell activation following DGKα inhibition by the compound.
Flat-bottom polystyrene plates (384-well, tissue culture treated) were coated overnight at 4° C. with 20 ul/well of a solution of phosphate-buffered saline supplemented with 5 ug/ml anti-CD3 antibody (clone OKT3, Biolegend). The day after, the excess antibody was washed out five times with 100 ul/well of assay medium (RPMI supplemented with 10% fetal bovine serum) using a Biotek EL406 instrument and leaving 20 ul of residual volume in each well. Jurkat NFκB-luciferase cells (Promega #) were harvested and diluted to 1 million cells/ml in assay medium. Sixty nanoliters of test compound dissolved in DMSO at various concentrations were dispensed into 384-well v-bottom polypropylene plates (Greiner) using a Labcyte Echo instrument. Thirty microliters of medium containing the Jurkat NFκB-luciferase cells were then dispensed using a Biotek MicroFlo instrument in each well of the compound-containing plate. The medium/cell/compound mixture was mixed with a Bravo instrument and 20 ul/well of the mixture was transferred to the anti-CD3-coated plate. The assay mixture was then incubated for 2.5 hrs at 37° C. followed by equilibration at 25° C. for 30 min. Forty microliters of One-Glo Ex (Promega) was then added to the assay mixture and luciferase activity was read on a Envision plate reader 7 minutes later.
Bioluminescence data were normalized based on maximum enhancement (1 micromolar of compound) and on basal activation (DMSO) controls. Least squares curve fittings were performed using a four-parameter variable slope nonlinear regression model. EC50 is defined as the concentration of compound required to produce 50% of maximum NFκB luciferase signal. EC50 values from multiple experiments were averaged by geometric mean and the standard deviation was calculated.

Sequence of human DGKα (P23743 whole entry): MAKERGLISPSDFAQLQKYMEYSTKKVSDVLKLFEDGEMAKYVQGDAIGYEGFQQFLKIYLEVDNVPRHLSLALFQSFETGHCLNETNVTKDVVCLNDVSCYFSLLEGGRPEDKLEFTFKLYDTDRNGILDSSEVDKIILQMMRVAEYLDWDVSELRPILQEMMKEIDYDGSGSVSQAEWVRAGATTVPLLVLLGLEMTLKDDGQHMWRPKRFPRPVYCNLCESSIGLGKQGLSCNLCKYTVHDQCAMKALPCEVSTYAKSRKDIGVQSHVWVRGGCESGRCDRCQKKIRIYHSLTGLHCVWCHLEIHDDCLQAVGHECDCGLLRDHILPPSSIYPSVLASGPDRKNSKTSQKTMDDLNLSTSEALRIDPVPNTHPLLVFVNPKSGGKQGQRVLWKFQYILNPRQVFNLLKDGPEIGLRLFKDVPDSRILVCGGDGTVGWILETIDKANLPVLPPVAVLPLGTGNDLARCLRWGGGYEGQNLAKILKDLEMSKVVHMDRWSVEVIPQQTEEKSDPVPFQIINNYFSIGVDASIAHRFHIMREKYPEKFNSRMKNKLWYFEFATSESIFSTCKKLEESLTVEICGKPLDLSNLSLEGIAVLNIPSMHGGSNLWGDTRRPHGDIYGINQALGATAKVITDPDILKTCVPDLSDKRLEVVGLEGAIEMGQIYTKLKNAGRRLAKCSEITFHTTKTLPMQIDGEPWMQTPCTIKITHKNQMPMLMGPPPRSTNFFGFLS

SMILES | IC50 [1] [nM] | EC50 [2] [nM]
Cc1nnc2nc(N3CCOCc4c(C#CC(C)(C)O)cccc43)c3ccc(C(F)(F)F)nc3n12 [Example 141, 2-methyl-4-[1-[3-methyl-12-(trifluoromethyl)-2,4,5,7,13-pentazatricyclo[7.4.0.02,6]trideca-1(13),3,5,7,9,11-hexaen-8-yl]-3,5-dihydro-2H-4,1-benzoxazepin-6-yl]but-3-yn-2-ol] | 20.1 | 55.8
Cc1nnc2nc(N3CCCCc4c(C#CC5(C(C)(F)F)CC5)cccc43)c3c(F)cncc3n12 [Example 65, 5-(6-((1-(1,1-difluoroethyl)cyclopropyl)ethynyl)-2,3,4,5-tetrahydro-1H-benzo[b]azepin-1-yl)-6-fluoro-1-methylpyrido[4,3-e][1,2,4]triazolo[4,3-a]pyrimidine] | 22.7 | 0.337
Cc1nnc2nc(N3CCCc4c(C#CC(C)(C)C#N)cncc43)c3c(F)cncc3n12 [Example 37, 4-(1-(6-fluoro-1-methylpyrido[4,3-e][1,2,4]triazolo[4,3-a]pyrimidin-5-yl)-1,2,3,4-tetrahydro-1,7-naphthyridin-5-yl)-2,2-dimethylbut-3-ynenitrile] | 52.9 | 54.9
CN(c1cccc(-c2ccc(S(F)(F)(F)(F)F)cc2)c1)c1nc2nncn2c2nc(N)ccc12 [Example 117, N5-methyl-N5-(4′-(pentafluoro-16-sulfaneyl)-[1,1′-biphenyl]-3-yl)pyrido[3,2-e][1,2,4]triazolo[4,3-a]pyrimidine-2,5-diamine] | 30.4 | 4.88
Cc1nnc2nc(N3CCOCc4c(C#CC5CN(C)CCO5)cccc43)c3c(F)cncc3n12 (centres unmarked) [Example 56, 1-(10-fluoro-3-methyl-2,4,5,7,12-pentazatricyclo[7.4.0.02,6]trideca-1(13),3,5,7,9,11-hexaen-8-yl)-6-[2-(4-methylmorpholin-2-yl)ethynyl]-3,5-dihydro-2H-4,1-benzoxazepine] | 18.6 | 109
CN(c1cc(F)cc(C#CC(C)(C)O)c1)c1nc2cncn2c2cc(Cl)ccc12 [Example 3, 4-[3-[(8-chloroimidazo[1,5-a]quinazolin-5-yl)-methyl-amino]-5-fluoro-phenyl]-2-methyl-but-3-yn-2-ol] | 839 | 14.6
CC(C)(O)C#Cc1cc(N(CC(F)F)c2nc3nncn3c3cncc(F)c23)ccn1 [Example 54, 4-(4-((2,2-difluoroethyl)(6-fluoropyrido[4,3-e][1,2,4]triazolo[4,3-a]pyrimidin-5-yl)amino)pyridin-2-yl)-2-methylbut-3-yn-2-ol] | 184 | 1000
Cc1nnc2nc(N3CCCc4c(C#CC(C)(C)C(F)(F)F)cccc43)c3cc(F)cnc3n12 [Example 102, 3-fluoro-9-methyl-5-(5-(4,4,4-trifluoro-3,3-dimethylbut-1-yn-1-yl)-3,4-dihydroquinolin-1(2H)-yl)pyrido[3,2-e][1,2,4]triazolo[4,3-a]pyrimidine] | 21.4 | 1.8
CNc1ccc2c(N(C)c3cccc(C#CC(C)(C)C)c3)nc3nncn3c2n1 [Example 118, N5-(3-(3,3-dimethylbut-1-yn-1-yl)phenyl)-N2,N5-dimethylpyrido[3,2-e][1,2,4]triazolo[4,3-a]pyrimidine-2,5-diamine] | 105 | 5.79
Cc1nnc2nc(N3CCCc4c3ccnc4C#CC3(C(C)(F)F)CC3)c3c(F)cncc3n12 [Example 29, 5-(5-((1-(1,1-difluoroethyl)cyclopropyl)ethynyl)-3,4-dihydro-1,6-naphthyridin-1(2H)-yl)-6-fluoro-1-methylpyrido[4,3-e][1,2,4]triazolo[4,3-a]pyrimidine] | 37.7 | 7.24
Cc1nnc2nc(N3CCOCc4c(C#CC5(C(C)(F)F)CC5)cccc43)c3c(F)cncc3n12 [Example 94, 6-((1-(1,1-difluoroethyl)cyclopropyl)ethynyl)-1-(6-fluoro-1-methylpyrido[4,3-e][1,2,4]triazolo[4,3-a]pyrimidin-5-yl)-1,2,3,5-tetrahydrobenzo[e][1,4]oxazepine] | 25.1 | 3.39
CCN(c1cc(F)cc(-c2ccc(N3CC4(CC4)CS3(=O)=O)nc2)c1)c1nc2nnnn2c2cc(Cl)ccc12 [Example 7] | 117 | 7.41
Cc1nnc2nc(N(CC(F)F)c3cc(F)cc(C#CC(C)(C)O)c3)c3c(F)cncc3n12 [Example 48, 4-(3-((2,2-difluoroethyl)(6-fluoro-1-methylpyrido[4,3-e][1,2,4]triazolo[4,3-a]pyrimidin-5-yl)amino)-5-fluorophenyl)-2-methylbut-3-yn-2-ol] | 48.9 | 97.2

The next molecules have a lower IC50 [1] than those just listed; values first:

IC50 [1] [nM] | EC50 [2] [nM] | SMILES
4.65 | 4.1 | Cc1nnc2nc(N3CCCc4c(C#CC(C)(C)C#N)cccc43)c3c(F)cncc3n12 [Example 97, 4-(1-(6-fluoro-1-methylpyrido[4,3-e][1,2,4]triazolo[4,3-a]pyrimidin-5-yl)-1,2,3,4-tetrahydroquinolin-5-yl)-2,2-dimethylbut-3-ynenitrile]
4.03 | 3.1 | Cc1nnc2nc(N3CCCc4c(C#Cc5cnn(C)c5)cccc43)c3cc(F)cnc3n12 [Example 135]
14.5 | 3.53 | Cc1nnc2nc(N(CC(F)F)c3cc(F)cc(C#CC4(C)CC4)c3)c3cc(F)cnc3n12 [Example 104, N-(2,2-difluoroethyl)-3-fluoro-N-(3-fluoro-5-((1-methylcyclopropyl)ethynyl)phenyl)-9-methylpyrido[3,2-e][1,2,4]triazolo[4,3-a]pyrimidin-5-amine]
7.93 | 2.26 | Cc1nnc2nc(N3CCCc4c(C#CC5(C(F)F)CC5)cccc43)c3cc(F)cnc3n12 [Example 100, 5-(5-((1-(difluoromethyl)cyclopropyl)ethynyl)-3,4-dihydroquinolin-1(2H)-yl)-3-fluoro-9-methylpyrido[3,2-e][1,2,4]triazolo[4,3-a]pyrimidine]
8.44 | 2.18 | Fc1cnc2c(c1)c(N1CCCc3c(C#CC4(C(F)(F)F)CC4)cccc31)nc1nncn12 [Example 150, 11-fluoro-8-[5-[2-[1-(trifluoromethyl)cyclopropyl]ethynyl]-3,4-dihydro-2H-quinolin-1-yl]-2,4,5,7,13-pentazatricyclo[7.4.0.02,6]trideca-1(13),3,5,7,9,11-hexaene]
6.09 | 1.41 | Cc1nnc2nc(N3CCOCc4c(C#CC(C)(C)C(F)(F)F)cccc43)c3c(F)cncc3n12 [Example 76, 1-(6-fluoro-1-methylpyrido[4,3-e][1,2,4]triazolo[4,3-a]pyrimidin-5-yl)-6-(4,4,4-trifluoro-3,3-dimethylbut-1-yn-1-yl)-1,2,3,5-tetrahydrobenzo[e][1,4]oxazepine]
